Read-outs that look alike come from different tables or passages of the source.
How the values were obtained:
[1] = system: Plasmodium falciparum strain Dd2; test: in vitro anti-malarial activity, [3H]hypoxanthine incorporation, strain Dd2; assay type: cell-based; conditions: for activity in the Dd2 cell line with respect to the reference compounds fosmidomycin and FR900098: same conditions, similar experimental setup
Procedure: (§1) The in vitro anti-malarial activity of some of the compounds prepared in example 1 was determined as follows. Intraerythrocytic stages of the Plasmodium falciparum strains 3D7 and Dd2 were respectively incubated with serial dilutions of the relevant compounds and the viability of the parasites was assessed by their ability to incorporate [^3H]hypoxanthine into DNA. Inhibition results were expressed as IC50.

[2] = system: Plasmodium falciparum strain 3D7; test: in vitro anti-malarial activity, [3H]hypoxanthine incorporation, strain 3D7; assay type: cell-based; conditions: P. falciparum strain 3D7, intraerythrocytic stages
Procedure: as §1

Plasmodium falciparum = conditions: cited from earlier work
Plasmodium vinckei = conditions: cited from earlier work
[3] = in vivo; cited from earlier work
[4] = system: acute, uncomplicated Plasmodium falciparum malaria; conditions: clinical trials, Gabon and Thailand; cited from earlier work
[5] = system: Plasmodium falciparum strain Dd2; conditions: P. falciparum Dd2, WO 2005/048715; cited from earlier work
[6] = Plasmodium falciparum, DD2, read-out: IC50 (μM) Dd2

COc1ccc(C(CCN(O)C=O)P(=O)(O)O)cc1 (centres unmarked) [Compound 1c, 3-(N-hydroxyformamido)-1-(4-methoxyphenyl)propylphosphonic acid]
IC50 [1, 6]: 0.2 µM | IC50 ([2]; Plasmodium falciparum): 0.36 µM

O=CN(O)CCC(c1ccc(Cl)c(Cl)c1)P(=O)(O)O (centres unmarked) [Compound 1e, 3-(N-hydroxyformamido)-1-(3,4-dichlorophenyl)propylphosphonic acid]
IC50 ([1]; Plasmodium falciparum, P. falciparum strain Dd2, intraerythrocytic stages, read-out: IC50 (μM) Dd2): 0.028 µM | in vitro antimalarial activity relative to fosmidomycin ([1]; inhibition of parasite growth, strain not named in the sentence (table: Dd2 and 3D7)): twelve-fold more active than fosmidomycin | in vitro antimalarial activity relative to FR900098 ([1]; strain not named in the sentence (table: Dd2 and 3D7)): exceeds the activity of FR900098 | IC50 ([2]; Plasmodium falciparum): 0.09 µM

CC(=O)N(O)CCC(c1ccc(Cl)cc1)P(=O)(O)O (centres unmarked) [Compound 2d, 3-(N-hydroxyacetamido)-1-(4-chlorophenyl)propylphosphonic acid]
IC50 [1, 6]: 0.095 µM | IC50 ([2]; Plasmodium falciparum): 0.35 µM

CC(=O)N(O)CCC(c1ccc(Cl)c(Cl)c1)P(=O)(O)O (centres unmarked) [Compound 2e, 3-(N-hydroxyacetamido)-1-(3,4-dichlorophenyl)propylphosphonic acid]
IC50 [1, 6]: 0.09 µM | IC50 ([2]; Plasmodium falciparum): 0.25 µM

CC(=O)N(O)CCC(c1ccc(C#N)cc1)P(=O)(O)O.N.N (centres unmarked) [Compound 104b, Bisammonium 3-[N-acetyl. N-(hydroxy)amino]-1-(4-cyanophenyl)-propylphosphonate]
activity in the Dd2 cell line with respect to the reference compounds fosmidomycin and FR900098 [1]: substantial higher activity

N#Cc1ccc(C(CCN(O)C=O)P(=O)(O)O)cc1 (centres unmarked) [Compound 105, 3-[N-formyl,N-(hydroxy)amino]-1-(4-cyanophenyl)-propylphosphonic acid]
activity in the Dd2 cell line with respect to the reference compounds fosmidomycin and FR900098 [1]: substantial higher activity

CC(=O)N(O)CCCP(=O)(O)O [FR900098, reference compound]
IC50 ([1]; P. falciparum strain Dd2, intraerythrocytic stages, read-out: IC50 (μM) Dd2): 0.18 µM | IC50 [2]: 0.32 µM | activity relative to fosmidomycin against Plasmodium falciparum in vitro (Plasmodium falciparum): approximately twice more active than fosmidomycin | activity relative to fosmidomycin in Plasmodium vinckei mouse model (Plasmodium vinckei): approximately twice more active than fosmidomycin

O=CN(O)CCCP(=O)(O)O [fosmidomycin]
IC50 [1, 6]: 0.36 µM | IC50 ([2]; Plasmodium falciparum): 1.1 µM | plasma half-life [3]: short | resorption rate [3]: moderate | treatment of patients suffering from acute, uncomplicated Plasmodium falciparum malaria [4]: proved to be efficient

CC(=O)N(O)CCC(c1ccccc1)P(=O)(O)O.OCCNCCO (stereo not drawn) [α-phenyl-FR900098 diethanolammonium salt]
IC50 value relative to FR900098 [5]: higher than FR900098

O=CN(O)CCC(c1ccccc1)P(=O)(O)O.OCCNCCO (stereo not drawn) [α-phenyl-fosmidomycin diethanolammonium salt]
IC50 value relative to fosmidomycin (times less) [5]: 4.5 times
